The test system of the assay is HCT116. The settings on record: 72 h. An outline of the steps:
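After seeding at 250 cells per well in 1536-well plates, HCT116 cells were given 5 h to attach. CellTiter-Glo luminescence, scaled to 0% for vehicle and -100% for positive control, was pattern-corrected. Fitting with a four-parameter Hill model produced IC50 and maximal efficacy.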

Where a name gives a salt, the structure may show the parent alone.

This passage reports IC50 cell viability results from the supplement of paper PMC12137928.

As for `Cc1nc2n(c(=O)c1CCN1CCC(c3noc4cc(F)ccc34)CC1)CCCC2` [Risperidone], the IC50 cell viability (ICRF193 0 nM) is above 45.8 µM and the IC50 cell viability (ICRF193 200 nM) is above 45.8 µM.
On to `O.O.O.O.O=C([O-])CC(O)(CC(=O)[O-])C(=O)[O-].[Li+].[Li+].[Li+]` [LITHIUM CITRATE], for which the IC50 cell viability (ICRF193 0 nM) was above 45.8 µM and the IC50 cell viability (ICRF193 200 nM) was above 45.8 µM.
`O=C(CCCCCCCCC#CI)Oc1ccccc1` [Phenyl 11-iodo-10-undecynoate]: the IC50 cell viability is, setting by setting: (ICRF193 0 nM) above 45.8 µM; (ICRF193 200 nM) above 45.8 µM.
With `CCCN(CCC)CCc1cccc2c1CC(=O)N2` [Ropinirole], the IC50 cell viability by setting is: (ICRF193 0 nM) above 45.8 µM; (ICRF193 200 nM) above 45.8 µM.
With `C[N+](C)(C)CCCCCCCCCC[N+](C)(C)C` [Decamethonium bromide], the IC50 cell viability (ICRF193 0 nM) was above 45.8 µM and the IC50 cell viability (ICRF193 200 nM) was above 45.8 µM.
As for `C[N+]12CCC(CC1)C(OC(=O)C(O)(c1ccccc1)c1ccccc1)C2` (stereo unspecified) [Clidinium bromide], the IC50 cell viability is, setting by setting: (ICRF193 0 nM) above 45.8 µM; (ICRF193 200 nM) above 45.8 µM.
As to `CCOCCn1c(N2CCCN(C)CC2)nc2ccccc21` [Emedastine difumarate], the IC50 cell viability is, setting by setting: (ICRF193 0 nM) above 45.8 µM; (ICRF193 200 nM) above 45.8 µM.
For the compound `CC(=O)O[C@H]1C[C@@H]2CC[C@@H]3[C@H](CC[C@@]4(C)[C@H]3C[C@H]([N+]3(C)CCCCC3)[C@@H]4OC(C)=O)[C@@]2(C)C[C@@H]1[N+]1(C)CCCCC1` [Pancuronium bromide], the IC50 cell viability reads like this: (ICRF193 0 nM) above 45.8 µM; (ICRF193 200 nM) above 45.8 µM.
In the case of `CO[C@@]1(NC(=O)CSCC#N)C(=O)N2C(C(=O)O)=C(CSc3nnnn3C)CS[C@@H]21` [Cefmetazole sodium], the IC50 cell viability by setting is: (ICRF193 0 nM) above 45.8 µM; (ICRF193 200 nM) above 45.8 µM.
Regarding `CC(CN1c2ccccc2Sc2cccnc21)N(C)C` (stereo unspecified) [Isothipendyl hydrochloride], the IC50 cell viability is, setting by setting: (ICRF193 0 nM) above 45.8 µM; (ICRF193 200 nM) above 45.8 µM.
Turning to `CC1(C)S[C@@H]2[C@H](NC(=O)COc3ccccc3)C(=O)N2[C@H]1C(=O)O` [PENICILLIN V POTASSIUM], the IC50 cell viability by setting is: (ICRF193 0 nM) above 45.8 µM; (ICRF193 200 nM) above 45.8 µM.
`CC(C)[C@@H](C)/C=C/[C@@H](C)[C@H]1CC[C@H]2/C(=C/C=C3\C[C@@H](O)CC[C@@H]3C)CCC[C@]12C` [Dihydrotachysterol]: the IC50 cell viability was above 45.8 µM (ICRF193 0 nM) and above 45.8 µM (ICRF193 200 nM).
Turning to `NC[C@H]1O[C@H](O[C@H]2[C@H](O)[C@@H](O[C@H]3O[C@H](CO)[C@@H](O)[C@H](N)[C@H]3O)[C@H](N)C[C@@H]2N)[C@H](O)[C@@H](O)[C@@H]1O` [Kanamycin (sulfate)], the IC50 cell viability by setting is: (ICRF193 0 nM) above 45.8 µM; (ICRF193 200 nM) above 45.8 µM.
As to `Cc1cc(O)cc2c1O[C@](C)(CCC[C@H](C)CCC[C@H](C)CCCC(C)C)CC2` [D-delta-Tocopherol], the IC50 cell viability is above 45.8 µM (ICRF193 0 nM) and above 45.8 µM (ICRF193 200 nM).
As to `O=C(O)c1cc(-c2ccc(F)cc2F)ccc1O` [Diflunisal], the IC50 cell viability was above 45.8 µM (ICRF193 0 nM) and above 45.8 µM (ICRF193 200 nM).
Turning to `CCCCC(=O)O[C@]1(C(=O)COC(C)=O)CC[C@H]2[C@@H]3CCC4=CC(=O)C=C[C@]4(C)[C@H]3[C@@H](O)C[C@@]21C` [PREDNISOLONE VALERATE ACETATE], the IC50 cell viability by setting is: (ICRF193 0 nM) above 45.8 µM; (ICRF193 200 nM) above 45.8 µM.
`CCN(CC)C(=O)N1CCN(C)CC1` [DIETHYLCARBAMAZINE CITRATE]: the IC50 cell viability was above 45.8 µM (ICRF193 0 nM) and above 45.8 µM (ICRF193 200 nM).
On to `CC1CC(OC(=O)c2ccccc2O)CC(C)(C)C1` (stereo unspecified) [3,3,5-Trimethylcyclohexyl salicylate], for which the IC50 cell viability was above 45.8 µM (ICRF193 0 nM) and above 45.8 µM (ICRF193 200 nM).
`NC[C@H]1CC[C@H](C(=O)O)CC1` [TRANEXAMIC ACID]: the IC50 cell viability (ICRF193 0 nM) is above 45.8 µM and the IC50 cell viability (ICRF193 200 nM) was above 45.8 µM.
On to `O=C1[C@@H]2[C@H]3CC[C@H](C3)[C@@H]2C(=O)N1CCCCN1CCN(c2ncccn2)CC1` [Tandospirone], for which the IC50 cell viability runs as follows: (ICRF193 0 nM) above 45.8 µM; (ICRF193 200 nM) above 45.8 µM.
As to `CCCCCCCC(=O)O` [Octanoic acid], the IC50 cell viability reads like this: (ICRF193 0 nM) above 45.8 µM; (ICRF193 200 nM) above 45.8 µM.
As for `CCCCCOc1ccc(C2SC(=O)NC2=O)cc1OCC` (stereo unspecified) [Risarestat], the IC50 cell viability reads like this: (ICRF193 0 nM) above 45.8 µM; (ICRF193 200 nM) above 45.8 µM.
Regarding `CC=CC(=O)N(CC)c1ccccc1C` [Crotamiton], the IC50 cell viability is above 45.8 µM (ICRF193 0 nM) and above 45.8 µM (ICRF193 200 nM).
In the case of `CC12CCC(CC1=O)C2(C)C` [D-Camphor], the IC50 cell viability reads like this: (ICRF193 0 nM) above 45.8 µM; (ICRF193 200 nM) above 45.8 µM.
With `CCOc1ccc(/N=C(\C)Nc2ccc(OCC)cc2)cc1` [Phenacaine hydrochloride], the IC50 cell viability (ICRF193 0 nM) is above 45.8 µM and the IC50 cell viability (ICRF193 200 nM) was above 45.8 µM.
Turning to `C/C(=C1\CCOC(=O)S1)N(C=O)Cc1cnc(C)nc1N` [Cycotiamine], the IC50 cell viability reads like this: (ICRF193 0 nM) above 45.8 µM; (ICRF193 200 nM) above 45.8 µM.
For the compound `C[N+]1(C)[C@@H]2C[C@@H](OC(=O)[C@H](CO)c3ccccc3)C[C@H]1[C@@H]1O[C@@H]12` [Scopolamine methylbromide], the IC50 cell viability (ICRF193 0 nM) is above 45.8 µM and the IC50 cell viability (ICRF193 200 nM) was above 45.8 µM.
For `CC1(C)S[C@@H]2[C@H](NC(=O)C(c3ccccc3)S(=O)(=O)O)C(=O)N2[C@H]1C(=O)O` (stereo partly specified) [Sulbenicillin disodium], the IC50 cell viability by setting is: (ICRF193 0 nM) above 45.8 µM; (ICRF193 200 nM) above 45.8 µM.
Regarding `O=C(CCCN1CCC(C(=O)c2ccc(F)cc2)CC1)c1ccc(F)cc1` [Lenperone Hydrochloride], the IC50 cell viability was above 45.8 µM (ICRF193 0 nM) and above 45.8 µM (ICRF193 200 nM).
As to `COC(=O)c1cncn1C(C)c1ccccc1` (stereo unspecified) [Metomidate hydrochloride], the IC50 cell viability is above 45.8 µM (ICRF193 0 nM) and above 45.8 µM (ICRF193 200 nM).
As to `CC(C)Cc1ccc(C(C)C(=O)OCc2ccccn2)cc1` (stereo unspecified) [Ibuprofen piconol], the IC50 cell viability is above 45.8 µM (ICRF193 0 nM) and above 45.8 µM (ICRF193 200 nM).
As to `N=C1CCCN1Cc1[nH]c(=O)[nH]c(=O)c1Cl` [Tipiracil], the IC50 cell viability runs as follows: (ICRF193 0 nM) above 45.8 µM; (ICRF193 200 nM) above 45.8 µM.
Turning to `S=P(N1CC1)(N1CC1)N1CC1` [ThioTEPA], the IC50 cell viability was above 45.8 µM (ICRF193 0 nM) and above 45.8 µM (ICRF193 200 nM).
With `CC[N+]1(C)[C@@H]2CC(OC(=O)[C@H](CO)c3ccccc3)C[C@H]1[C@@H]1O[C@@H]12` (stereo partly specified) [Oxitropium Bromide], the IC50 cell viability by setting is: (ICRF193 0 nM) above 45.8 µM; (ICRF193 200 nM) above 45.8 µM.
In the case of `CC(C)NCC(O)COc1ccc(COCCOC(C)C)cc1` (stereo unspecified) [Bisoprolol fumarate], the IC50 cell viability is above 45.8 µM (ICRF193 0 nM) and above 45.8 µM (ICRF193 200 nM).
On to `CC1COC2(c3ccccc3Cl)c3cc(Cl)ccc3NC(=O)CN12` (stereo unspecified) [Mexazolam], for which the IC50 cell viability was above 45.8 µM (ICRF193 0 nM) and above 45.8 µM (ICRF193 200 nM).
`O=C(O)c1nc(=O)[nH]c(=O)[nH]1` [Oteracil] showed an IC50 cell viability (ICRF193 0 nM) above 45.8 µM and an IC50 cell viability (ICRF193 200 nM) above 45.8 µM.
Take `CCOc1ccc(NS(=O)(=O)c2ccc(N)cc2)nn1` [Sulfaethoxypyridazine]: the IC50 cell viability is, setting by setting: (ICRF193 0 nM) above 45.8 µM; (ICRF193 200 nM) above 45.8 µM.
With `Clc1ccc2c(c1)CCc1cccnc1C2=C1CCNCC1` [Desloratadine], the IC50 cell viability (ICRF193 0 nM) was above 45.8 µM and the IC50 cell viability (ICRF193 200 nM) is above 45.8 µM.
For the compound `O=C(Cn1ccnc1[N+](=O)[O-])NCc1ccccc1` [Benznidazole], the IC50 cell viability was above 45.8 µM (ICRF193 0 nM) and above 45.8 µM (ICRF193 200 nM).
Take `CCC(CC)(CNC(=O)CCCO)c1cccc(OC)c1` [Embutramide]: the IC50 cell viability was above 45.8 µM (ICRF193 0 nM) and above 45.8 µM (ICRF193 200 nM).
The compound `Cc1c(I)c(=O)n(-c2ccccc2)n1C` [Iodoantipyrine] returned an IC50 cell viability (ICRF193 0 nM) above 45.8 µM and an IC50 cell viability (ICRF193 200 nM) above 45.8 µM.
Turning to `NCC(O)c1cccc(O)c1` (stereo unspecified) [Norphenylephrine hydrochloride], the IC50 cell viability by setting is: (ICRF193 0 nM) above 45.8 µM; (ICRF193 200 nM) above 45.8 µM.
For the compound `C[C@H]1COc2c(N3CCN(C)CC3)c(F)cc3c(=O)c(C(=O)O)cn1c23` [Levofloxacin], the IC50 cell viability reads like this: (ICRF193 0 nM) above 45.8 µM; (ICRF193 200 nM) above 45.8 µM.
Consider `Nc1ncnc2c1ncn2[C@@H]1O[C@H](CO)[C@@H](O)[C@H]1O` [Adenosine], for which the IC50 cell viability (ICRF193 0 nM) was above 45.8 µM and the IC50 cell viability (ICRF193 200 nM) was above 45.8 µM.
As to `C=CCNC(N)=S` [Allylthiourea], the IC50 cell viability is above 45.8 µM (ICRF193 0 nM) and above 45.8 µM (ICRF193 200 nM).
On to `CCOC(=O)CCC(=O)O[C@H]1[C@H](O[C@@H]2[C@@H](C)[C@H](O[C@H]3C[C@@](C)(OC)[C@@H](O)[C@H](C)O3)[C@@H](C)C(=O)O[C@H](CC)[C@@](C)(O)[C@H](O)[C@@H](C)C(=O)[C@H](C)C[C@@]2(C)O)O[C@H](C)C[C@@H]1N(C)C` [ERYTHROMYCIN ETHYLSUCCINATE], for which the IC50 cell viability (ICRF193 0 nM) was above 45.8 µM and the IC50 cell viability (ICRF193 200 nM) is above 45.8 µM.
Take `C/C(=C(\CCOP(=O)(O)O)SC(=O)c1ccccc1)N(C=O)Cc1cnc(C)nc1N` [Benfotiamine]: the IC50 cell viability by setting is: (ICRF193 0 nM) above 45.8 µM; (ICRF193 200 nM) above 45.8 µM.
Consider `CCCCC/C=C\C/C=C\CCCCCCCC(=O)OCC` [Ethyl linoleate], for which the IC50 cell viability is above 45.8 µM (ICRF193 0 nM) and above 45.8 µM (ICRF193 200 nM).
Take `CN1[C@@H]2C[C@@H](OC(=O)[C@H](CO)c3ccccc3)C[C@H]1[C@@H]1O[C@@H]12` [Scopolamine hydrobromide]: the IC50 cell viability is, setting by setting: (ICRF193 0 nM) above 45.8 µM; (ICRF193 200 nM) above 45.8 µM.
With `FC(F)OC(Cl)C(F)(F)F` (stereo unspecified) [Isoflurane], the IC50 cell viability is above 45.8 µM (ICRF193 0 nM) and above 45.8 µM (ICRF193 200 nM).
On to `CC/C=C\C/C=C\C/C=C\C/C=C\C/C=C\C/C=C\CCC(=O)O` [DOCONEXENT], for which the IC50 cell viability reads like this: (ICRF193 0 nM) above 45.8 µM; (ICRF193 200 nM) above 45.8 µM.
For the compound `COCC1=C(C(=O)OC(C)OC(=O)OC(C)C)N2C(=O)[C@@H](NC(=O)/C(=N\OC)c3csc(N)n3)[C@H]2SC1` (stereo partly specified) [CEFPODOXIME PROXETIL], the IC50 cell viability runs as follows: (ICRF193 0 nM) above 45.8 µM; (ICRF193 200 nM) above 45.8 µM.
